Assay results: patent US10251860B2, “Compounds for bone healing” (University of Pittsburgh—Of the Commonwealth System of …, priority 2015, dated 2019)
Entries after “also recorded” stand apart in the source; their conditions may differ.

Legend:
[1] = Compound storage in 25% w/w solutions of 3 and NMP; assay type: physicochemical; conditions: 25% w/w 3 in NMP, −20° C.
Protocol: Because sulfoxide 3 is a solid, it would have to be mixed with an appropriate water-soluble cosolvent to act as a compound storage additive. NMP was chosen for exploring this potential application due to its thermal stability and low toxicity. […] The compound test set (FIG. 2) was stored in 25% w/w solutions of 3 and NMP for 6 weeks at −20° C.

PKD1 = molecular target: T1, PKD1 (Homo sapiens, UniProt Q15139); test: Radiometric PKD1 inhibition assay; assay type: biochemical; conditions: stock solutions in 25% 3/NMP
T1 sequence (Q15139 1-912): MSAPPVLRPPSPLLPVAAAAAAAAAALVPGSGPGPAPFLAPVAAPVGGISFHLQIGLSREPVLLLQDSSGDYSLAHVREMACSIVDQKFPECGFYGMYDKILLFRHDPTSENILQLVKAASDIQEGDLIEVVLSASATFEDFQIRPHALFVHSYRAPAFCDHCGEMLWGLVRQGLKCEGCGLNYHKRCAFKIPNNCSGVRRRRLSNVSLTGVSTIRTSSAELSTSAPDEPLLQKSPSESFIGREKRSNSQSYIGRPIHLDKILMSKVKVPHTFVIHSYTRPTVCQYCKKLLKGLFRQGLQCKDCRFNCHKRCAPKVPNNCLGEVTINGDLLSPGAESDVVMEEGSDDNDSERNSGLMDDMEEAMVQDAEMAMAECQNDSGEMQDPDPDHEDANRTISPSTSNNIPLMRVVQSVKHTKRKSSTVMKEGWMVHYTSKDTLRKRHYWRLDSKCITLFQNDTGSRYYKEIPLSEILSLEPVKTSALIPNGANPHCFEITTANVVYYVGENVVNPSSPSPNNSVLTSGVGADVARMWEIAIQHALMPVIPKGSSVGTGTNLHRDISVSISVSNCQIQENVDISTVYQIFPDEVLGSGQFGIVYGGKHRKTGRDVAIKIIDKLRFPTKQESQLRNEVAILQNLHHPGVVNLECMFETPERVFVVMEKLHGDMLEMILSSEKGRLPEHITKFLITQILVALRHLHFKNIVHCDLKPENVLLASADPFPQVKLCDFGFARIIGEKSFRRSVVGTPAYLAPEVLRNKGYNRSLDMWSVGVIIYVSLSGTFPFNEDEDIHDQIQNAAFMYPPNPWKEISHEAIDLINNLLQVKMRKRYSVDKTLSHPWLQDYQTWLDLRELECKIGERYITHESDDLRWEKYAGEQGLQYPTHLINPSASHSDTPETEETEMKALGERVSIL
Source text: Recently, a series of compounds with nanomolar to micromolar inhibitory activity against the serine/threonine protein kinase D (PKD) isoform PKD1 was disclosed (FIG. 7). Several lead structures, especially those containing a pyrimidine moiety, suffered from poor solubility not only in aqueous media but also in DMSO. To test the feasibility of using sulfoxide 3 as a cosolvent for in vitro assays, its use in the radiometric PKD1 inhibition assay was examined. Inhibitory activity at two concentrations (1 μM and 10 μM) was measured using compound stock solutions in three formulations: DMSO, NMP, and 25% 3/NMP (FIGS. 8 and 9).

[2] = test system: luc+ bone marrow stromal cells migrating to lungs; test: Live imaging of luc+ marrow cell migration to irradiated lungs; assay type: in vivo, mouse; conditions: MMS350 in drinking water
Protocol: C57BL/6NTac mice marrow chimeric luc+ mice were prepared by 9.25 Gy TBI, followed by an injection of 1×10^7 luc+ marrow cells 24 hours later. Subgroups of these chimeric mice were irradiated to 20 Gy to the pulmonary cavity. On day 75 following thoracic irradiation, 50% of the mice were placed on drinking water containing 100 mM MMS350. Mice in the non-chimeric group were injected intraperitoneally on day 100 after irradiation with 1×10^6 luc+ bone marrow stromal cells. Beginning 12 days after cell line injection (112 days after irradiation), the cell line injected mice were imaged at serial timepoints following injection of D-luciferin (Gold Biotechnology, St. Louis, Mo.) using a Xenogen IVIS 200 Imaging system and the bioluminescent signal for each mouse quantitated. As controls for thoracic irradiation, other C57BL/6NTac mice were irradiated to 20 Gy to the right hind limb and injected with luc+ bone marrow stromal cells in the same cell numbers and at the same time points used for the thoracic irradiation experiment. Animals were imaged for luc+ cell migration into irradiated hind limbs using methods identical to that used for pulmonary irradiation groups. The bioluminescence of the mice treated with MMS350 in the drinking water was compared to mice on regular drinking water using a Student T test. […]

CC1(C[S+]([O-])CC2(C)COC2)COC1 [Compound 3, 3,3′-Sulfinylbis(methylene)bis(3-methyloxetane)]
precipitation on storage [1]: partly precipitated from the solution
interference with PKD1 inhibition assay (PKD1): did not interfere with the standard PKD1 inhibition assay
pulmonary migration of luc+ bone marrow stromal cells ([2]; 20 Gy thoracic irradiation, luc+ stromal cell line injected intraperitoneally): significant decrease in migration into the lungs of luc+ cells; also recorded: significant decrease in pulmonary migration of luc+ bone marrow stromal cells
migration of luc+ bone marrow cells into the lungs ([2]; luc+ marrow chimeric mice, 18 or 20 Gy thoracic irradiation, listed as MMS350): significantly reduces migration of bone marrow cells into the lungs; also recorded: reduction of luc+ areas in the thoracic cavity
